{"source": "ChEMBL document CHEMBL3045765", "about": "“Quantitative structure-fungitoxicity relationships of some monohydric alcohols” (J Agric Food Chem, 2003)", "key": {"[1]": {"system": "Colletotrichum gloeosporioides", "experiment": "Fungitoxicity against Colletotrichum gloeosporioides assessed as mycelial growth inhibition by poisoned food technique", "format": "functional, organism-based", "settings": "for minimal effective concentration: read-out: MEC"}, "[2]": {"system": "Colletotrichum gloeosporioides", "experiment": "Fungitoxicity against Colletotrichum gloeosporioides assessed as mycelial growth inhibition at 1200 mg/L by poisoned food technique", "format": "functional", "settings": "read-out: GI"}}, "data": [{"compound": "CCO", "note": "[ALCOHOL]", "values": [{"measurement": "EC50", "setting": "[1]; read-out: EC50", "result": 17700, "unit": "µg/mL"}, {"measurement": "minimal effective concentration", "setting": "[1]", "result": 5490, "unit": "µg/mL"}]}, {"compound": "CCCCCCCO", "note": "[1-HEPTANOL]", "values": [{"measurement": "EC50", "setting": "[1]; read-out: EC50", "result": 546, "unit": "µg/mL"}, {"measurement": "minimal effective concentration", "setting": "[1]", "result": 182, "unit": "µg/mL"}, {"measurement": "EC50", "setting": "[1]; read-out: pEC50 (converted)", "result": 4.68, "unit": "mM"}]}, {"compound": "CCCCCCCCCCO", "note": "[DECANOL]", "values": [{"measurement": "EC50", "setting": "[1]; read-out: EC50", "result": 112, "unit": "µg/mL"}, {"measurement": "minimal effective concentration", "setting": "[1]", "result": 52, "unit": "µg/mL"}, {"measurement": "EC50", "setting": "[1]; read-out: pEC50 (converted)", "result": 0.708, "unit": "mM"}]}, {"compound": "CCCCCCO", "note": "[1-HEXANOL]", "values": [{"measurement": "EC50", "setting": "[1]; read-out: EC50", "result": 1270, "unit": "µg/mL"}, {"measurement": "minimal effective concentration", "setting": "[1]", "result": 772, "unit": "µg/mL"}, {"measurement": "EC50", "setting": "[1]; read-out: pEC50 (converted)", "result": 12, "unit": "mM"}]}, {"compound": "CC(C)[C@@H]1CC[C@@H](C)C[C@@H]1O", "note": "[(+) NEOMENTHOL]", "values": [{"measurement": "EC50", "setting": "[1]; read-out: EC50", "result": 488, "unit": "µg/mL"}, {"measurement": "EC50", "setting": "[1]; read-out: pEC50 (converted)", "result": 3.09, "unit": "mM"}]}, {"compound": "C=CC(C)(O)CCC=C(C)C", "note": "(stereo unspecified) [LINALOOL]", "values": [{"measurement": "EC50", "setting": "[1]; read-out: EC50", "result": 1090, "unit": "µg/mL"}, {"measurement": "EC50", "setting": "[1]; read-out: pEC50 (converted)", "result": 7.08, "unit": "mM"}]}, {"compound": "OCCc1ccccc1", "note": "[PHENYLETHYL ALCOHOL]", "values": [{"measurement": "EC50", "setting": "[1]; read-out: EC50", "result": 1000, "unit": "µg/mL"}, {"measurement": "EC50", "setting": "[1]; read-out: pEC50 (converted)", "result": 8.13, "unit": "mM"}]}, {"compound": "CC(C)=CCCC(C)CCO", "note": "(stereo unspecified) [CITRONELLOL]", "values": [{"measurement": "EC50", "setting": "[1]; read-out: EC50", "result": 84, "unit": "µg/mL"}, {"measurement": "EC50", "setting": "[1]; read-out: pEC50 (converted)", "result": 0.537, "unit": "mM"}]}, {"compound": "CCCO", "note": "[PROPANOL]", "values": [{"measurement": "EC50", "setting": "[1]; read-out: EC50", "result": 8980, "unit": "µg/mL"}, {"measurement": "minimal effective concentration", "setting": "[1]", "result": 4430, "unit": "µg/mL"}]}, {"compound": "CC(C)CO", "note": "[ISOBUTANOL]", "values": [{"measurement": "EC50", "setting": "[1]; read-out: EC50", "result": 8200, "unit": "µg/mL"}]}, {"compound": "C=C[C@H](O)CCCCC", "values": [{"measurement": "EC50", "setting": "[1]; read-out: EC50", "result": 1290, "unit": "µg/mL"}, {"measurement": "EC50", "setting": "[1]; read-out: pEC50 (converted)", "result": 10, "unit": "mM"}]}, {"compound": "CC(C)CCO", "note": "[3-METHYLBUTANOL]", "values": [{"measurement": "EC50", "setting": "[1]; read-out: EC50", "result": 3710, "unit": "µg/mL"}, {"measurement": "EC50", "setting": "[1]; read-out: pEC50 (converted)", "result": 41.7, "unit": "mM"}]}, {"compound": "OCc1ccccc1", "note": "[BENZYL ALCOHOL]", "values": [{"measurement": "EC50", "setting": "[1]; read-out: EC50", "result": 1180, "unit": "µg/mL"}, {"measurement": "EC50", "setting": "[1]; read-out: pEC50 (converted)", "result": 11, "unit": "mM"}]}, {"compound": "CCCCCCCCCCCCCCCCO", "note": "[CETYL ALCOHOL]", "values": [{"measurement": "EC50", "setting": "[1]; read-out: EC50", "result": "> 1200", "unit": "µg/mL"}, {"measurement": "EC50", "setting": "[1]; read-out: pEC50 (converted)", "result": "> 5.25", "unit": "mM"}, {"measurement": "inhibition of growth at 1200 µg/mL", "setting": "[2]", "result": 5, "unit": "%"}]}, {"compound": "CCCCO", "note": "[BUTYL ALCOHOL]", "values": [{"measurement": "EC50", "setting": "[1]; read-out: EC50", "result": 3690, "unit": "µg/mL"}, {"measurement": "minimal effective concentration", "setting": "[1]", "result": 910, "unit": "µg/mL"}, {"measurement": "EC50", "setting": "[1]; read-out: pEC50 (converted)", "result": 50.1, "unit": "mM"}]}, {"compound": "CO", "note": "[METHYL ALCOHOL]", "values": [{"measurement": "EC50", "setting": "[1]; read-out: EC50", "result": 24700, "unit": "µg/mL"}, {"measurement": "minimal effective concentration", "setting": "[1]", "result": 8000, "unit": "µg/mL"}]}, {"compound": "CC1CCC(C(C)C)C(O)C1", "note": "(stereo unspecified) [MENTHOL]", "values": [{"measurement": "EC50", "setting": "[1]; read-out: EC50", "result": 452, "unit": "µg/mL"}, {"measurement": "EC50", "setting": "[1]; read-out: pEC50 (converted)", "result": 2.88, "unit": "mM"}]}, {"compound": "CC(C)O", "note": "[ISOPROPYL ALCOHOL]", "values": [{"measurement": "EC50", "setting": "[1]; read-out: EC50", "result": 18200, "unit": "µg/mL"}]}, {"compound": "CC(C)=CCC/C(C)=C/CO", "note": "[GERANIOL]", "values": [{"measurement": "EC50", "setting": "[1]; read-out: EC50", "result": 100, "unit": "µg/mL"}, {"measurement": "EC50", "setting": "[1]; read-out: pEC50 (converted)", "result": 0.646, "unit": "mM"}]}, {"compound": "CC(C)(C)O", "note": "[TERT-BUTANOL]", "values": [{"measurement": "EC50", "setting": "[1]; read-out: EC50", "result": 17100, "unit": "µg/mL"}]}, {"compound": "CCCCCCCCCCCCCCCCCCO", "note": "[CETOSTEARYL ALCOHOL]", "values": [{"measurement": "EC50", "setting": "[1]; read-out: EC50", "result": "> 225", "unit": "µg/mL"}, {"measurement": "minimal effective concentration", "setting": "[1]", "result": "> 225", "unit": "µg/mL"}, {"measurement": "EC50", "setting": "[1]; read-out: pEC50 (converted)", "result": "> 1.26", "unit": "mM"}]}, {"compound": "CCCCCCCCO", "note": "[OCTANOL]", "values": [{"measurement": "EC50", "setting": "[1]; read-out: EC50", "result": 298, "unit": "µg/mL"}, {"measurement": "minimal effective concentration", "setting": "[1]", "result": 87, "unit": "µg/mL"}, {"measurement": "EC50", "setting": "[1]; read-out: pEC50 (converted)", "result": 2.29, "unit": "mM"}]}, {"compound": "CCCCCO", "note": "[1-PENTANOL]", "values": [{"measurement": "EC50", "setting": "[1]; read-out: EC50", "result": 2130, "unit": "µg/mL"}, {"measurement": "minimal effective concentration", "setting": "[1]", "result": 712, "unit": "µg/mL"}, {"measurement": "EC50", "setting": "[1]; read-out: pEC50 (converted)", "result": 24, "unit": "mM"}]}]}
